Measurements: patent publication US20250277794A1, “SQSTM1 AND ITS USE IN CANCER THERAPY” (CENTRE NATIONAL DE LA RECHERCHE SCIENTIFIQUE, priority 2020, published 2025)

B1: IFNG: IFNγ (C-60724 Promokine), positive control (protein, UniProt P01579 24-161, looked up)
Interferon gamma: QDPYVKEAENLKKYFNAGHSDVADNGTLFLGILKNWKEESDRKIMQSQIVSFYFKLFKNFKDDQSIQKSVETIKEDMNVKFFNSNKKKRDDFEKLTNYSVTDLNVQRKAIHELIQVMAELSPAAKTGKRKRSQMLFRG

Tests used:
Format in all cases: cell-based, human
[1] = test system: HLA-B and PD-L1 expression in ShC A549 cells; test: IFN/HLA-B/PD-L1 pathway expression (qRT-PCR, western blot, flow cytometry) in shControl A549 cells; details: for Induction of HLA-B and PD-L1 expression: ShC (SQSTM1 positive) A549 cells, 5-Aza 500 nM, 5 and 6 days, IFNG 50 ng/ml
[2] = test system: shControl (ShC) A549 cells; test: Cell viability / Crystal Violet Cytotoxicity Assay, dose-response IC50, shControl A549 cells
Procedure: (§1) The majority of experiments presented in this study was performed with the human KRAS G12S/SKT11 Q37* co-mutated NSCLC A549 cells (American Type Tissue Collection, ATCC). All cells were maintained in Dulbecco's-modified minimum essential medium and Ham's F-12 medium (DMEM/F12 Glutamax; Life Technologies) supplemented with 10% fetal bovine serum (Dutcher), 2% Sodium Pyruvate, and 1% Penicillin-Streptomycin (Life technologies). To establish SQSTM1 knockdown stable cell lines, cells were transduced with small hairpin RNAs (shRNAs) lentiviruses that target the mRNA coding sequence of SQSTM1. Two distinct SQSTM1 shRNAs (Sigma, human, NM_003900, SQSTM1 #1, TRCN0000007237, and SQSTM1 #2, TRCN0000007236) were used to minimize sequence-dependent off-target effects. As controls, autophagy was inhibited at the initiation step by ATG5 (Sigma, human, NM_004849, ATG5 #1, TRCN0000151963) or ATG7 shRNA (Sigma, human, NM_006395, TRCN0000007584). For this purpose, the targeted and control (Sigma; SHC002V) shRNA lentivirus were transduced into the cells. ShRNA-mediated protein downregulation was controlled by qRT-PCR or immunoblotting with specific primers and antibodies (see for shRNA, primer, and antibody details the supplemental Tables 1 to 3).
(§2) For all experiments, cells were seeded in 6-well plates or 60 mm culture dishes and incubated until they reached 60-70% confluency.

ShSQSTM1 A549 cells = test: Cell viability / Crystal Violet Cytotoxicity Assay, dose-response IC50, shSQSTM1 A549 cells
Procedure: as §1, §2

[3] = test system: HLA-B and PD-L1 expression in ShSQSTM1 A549 cells; test: IFN/HLA-B/PD-L1 pathway expression (qRT-PCR, western blot, flow cytometry) in SQSTM1-depleted A549 cells; details: docetaxel 5 nM; for TBK1/STAT1 phosphorylation and expression of IFN, HLA-B and PD-L1 in SQSTM1-depleted cells: Cisplatin 10 μM, IFNG 50 ng/ml
Procedure: as §2
Quantitative real-time polymerase chain reaction analysis was performed on equal amounts of cDNA using the SYBR Green master mix and an Applied StepOne Plus PCR system (Life technologies). Relative gene expression changes were quantified using the 2 [−ΔΔCt] method and normalized to the housekeeping gene RPLP0 compared to the untreated cell samples.
Cell-surface expression of PD-L1 was examined using flow cytometry. […] Flow cytometry analysis was performed on a Cytoflex flow cytometer (10,000 cells, Cytoflex software). The MFI (PD-L1-isotype) is calculated as the MFI (PD-L1) is subtracted by the MFI (isotype control).

[4] = test system: 53BP1-positive foci in A549 cells; test: Global DNA damage measured by 53BP1 focus formation (immunofluorescence); details: Cisplatin 10 μM, FIG. 18
Procedure: At the indicated time, global DNA damage (A) was measured by 53BP1 focus formation (right immunofluorescence staining, 53BP1 red, Dapi, blue. Left, cell percentage with more than five spots).

[5] = Shc A549, dose-response curves (Cell Treatments)
[6] = ShSQSTM1 A549, dose-response curves (Cell Treatments)
[7] = Homo sapiens, Shc A549, dose-response curves (Cell Treatments)
[8] = Homo sapiens, ShSQSTM1 A549, dose-response curves (Cell Treatments)

Row | Molecule | Induction of HLA-B and PD-L1 expression [1] | TBK1/STAT1 phosphorylation and expression of IFN, HLA-B and PD-L1 in SQSTM1-depleted cells [3] | IC50 [2, 7] | IC50 (ShSQSTM1 A549 cells; [8]) | also measured
1 | Nc1ncn([C@@H]2O[C@H](CO)[C@@H](O)[C@H]2O)c(=O)n1 [5-Azacytidine] | recapitulated the late expression of HLA-B and PD-L1 | – | – | – | –
2 | N.N.[Cl][Pt][Cl] [Cisplatin] | most effective drug for inducing HLA-B and PD-L1 | did not up-regulate | – | – | IC50 [2, 5]: 24 µM; IC50 ([2]; control ShC A549 cells, Cisplatin 5 days, FIG. 14): 24 ± 1.4 µM; IC50 (ShSQSTM1 A549 cells; [6]): 47.7 µM; IC50 (ShSQSTM1 A549 cells; ShSQSTM1 A549 cells, Cisplatin 5 days, FIG. 14): 51 ± 5.3 µM; Start of formation of 53BP1-positive foci [4]: 6 h; Time of peak value of 53BP1-positive foci [4]: 16 h
3 | CC(=O)O[C@@]12CO[C@@H]1C[C@H](O)[C@@]1(C)C(=O)[C@H](O)C3=C(C)[C@@H](OC(=O)[C@H](O)[C@@H](NC(=O)OC(C)(C)C)c4ccccc4)C[C@@](O)([C@@H](OC(=O)c4ccccc4)[C@H]21)C3(C)C [Docetaxel] | – | significantly rescued | 0.364 µM | 0.0213 µM | Growth arrest and DNMT1 downregulation ([1]; Shc A549 cells, docetaxel 5 nM, qRT-PCR): did trigger growth arrest and DNMT1 downregulation; Growth arrest and DNMT1 downregulation ([3]; qRT-PCR): did trigger growth arrest and DNMT1 downregulation
4 | COc1cccc2c1C(=O)c1c(O)c3c(c(O)c1C2=O)C[C@@](O)(C(=O)CO)C[C@@H]3O[C@H]1C[C@H](N)[C@H](O)[C@H](C)O1 [Doxorubicin] | recapitulated the late induction of this pathway | – | 0.364 µM | 0.486 µM | –
5 | O=C(NCCCNc1nc(Nc2cccc(CN3CCOCC3)c2)ncc1C1CC1)C1CCC1 [MRT 67307] | – | – | – | – | Block of Cisplatin ability to induce IFN/HLA B/PD-L1 ([1]; co-treatment with Cisplatin 10 μM, MRT 67307 10 μM, Ruxolitinib 5 μM, FIG. 26): sufficient to block
6 | O=C1[O][Pt]2([NH][C@@H]3CCCC[C@H]3[NH]2)[O]C1=O [Oxaliplatin] | recapitulated the late induction of this pathway | – | – | – | IC50 [2, 5]: 2.61 µM; IC50 (ShSQSTM1 A549 cells; [6]): 4.51 µM
7 | CC(=O)O[C@H]1C(=O)[C@@]2(C)[C@H]([C@H](OC(=O)c3ccccc3)[C@]3(O)C[C@H](OC(=O)[C@H](O)[C@@H](NC(=O)c4ccccc4)c4ccccc4)C(C)=C1C3(C)C)[C@]1(OC(C)=O)CO[C@@H]1C[C@@H]2O [Paclitaxel] | – | – | 0.0014 µM | 0.0037 µM | –
8 | CO/C1=C\C(C)=C\[C@@H](C)[C@@H](O)[C@@H](C)C/C(C)=C/C=C/[C@H](OC)[C@@H]([C@@H](C)[C@@H](O)[C@H](C)[C@@]2(O)C[C@@H](O)[C@H](C)[C@@H](C(C)C)O2)OC1=O [bafA1] | – | – | – | – | HLA-B and PD-L1 expression on pharmacological autophagy inhibition ([1]; A549 cells, data not shown): enhanced expression of HLA-B and PD-L1
9 | B1 | induced STAT1 phosphorylation, HLA-B, and PD-L1 expression | induced STAT1 phosphorylation, HLA-B, and PD-L1 expression | – | – | –
